Laboratory results taken from ChEMBL document CHEMBL2429811, “Novel selective and potent inhibitors of malaria parasite dihydroorotate dehydrogenase: discovery and optimization of dihydrothiophenone derivatives” (J Med Chem, 2013).

Legend:
[1] = target: Dihydroorotate dehydrogenase (quinone), mitochondrial (Homo sapiens, UniProt Q02127); experiment: Inhibition of N-terminal His10-tagged human DHODH (Met30 to Arg396) expressed in Escherichia coli BL21 (DE3) using dihydroorotate as substrate measured every 30 secs for 6 mins by DCIP dye-based assay
[2] = target: T1, Dihydroorotate dehydrogenase (Plasmodium falciparum, UniProt Q54A96); experiment: Inhibition of Plasmodium falciparum DHODH (Phe158 to Ser569) expressed in Escherichia coli BL21 using dihydroorotate as substrate measured every 30 secs for 6 mins by DCIP dye-based assay
T1 sequence (Q54A96 whole entry): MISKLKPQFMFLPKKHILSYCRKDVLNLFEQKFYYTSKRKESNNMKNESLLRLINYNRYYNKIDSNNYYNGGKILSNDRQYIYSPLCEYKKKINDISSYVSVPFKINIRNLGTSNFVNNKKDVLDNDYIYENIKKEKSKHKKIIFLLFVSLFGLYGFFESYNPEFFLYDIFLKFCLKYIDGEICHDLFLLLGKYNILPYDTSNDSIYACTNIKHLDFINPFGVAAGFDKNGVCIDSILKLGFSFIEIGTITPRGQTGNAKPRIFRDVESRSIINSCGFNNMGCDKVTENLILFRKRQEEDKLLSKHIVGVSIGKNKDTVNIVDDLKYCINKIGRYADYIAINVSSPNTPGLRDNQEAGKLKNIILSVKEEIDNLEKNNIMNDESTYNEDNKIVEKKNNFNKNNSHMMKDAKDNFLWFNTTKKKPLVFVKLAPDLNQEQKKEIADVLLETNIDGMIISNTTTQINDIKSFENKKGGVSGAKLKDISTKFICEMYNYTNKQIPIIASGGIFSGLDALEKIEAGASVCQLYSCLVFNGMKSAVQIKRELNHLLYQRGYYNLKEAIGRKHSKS

Plasmodium falciparum [3] = experiment: microbe, parasite or virus in culture; conditions: Dd2, 72 h
Description: Antiplasmodial activity against chloroquine-resistant Plasmodium falciparum Dd2 infected in erythrocytes assessed as parasite growth inhibition after 72 hrs by SYBR green 1 dye-based fluorometric analysis

Plasmodium falciparum [4] = experiment: microbe, parasite or virus in culture; conditions: 3D7, 72 h
Description: Antiplasmodial activity against chloroquine-sensitive Plasmodium falciparum 3D7 infected in erythrocytes assessed as parasite growth inhibition after 72 hrs by SYBR green 1 dye-based fluorometric analysis

[5] = Oral bioavailability in Sprague-Dawley rat at 10 mg/kg; assay type: ADME, organism-based; conditions: in vivo
[6] = Tmax in Sprague-Dawley rat at 10 mg/kg, po; assay type: ADME, organism-based; parameters: dose 10 mg/kg, route oral; conditions: in vivo
[7] = Cmax in Sprague-Dawley rat at 10 mg/kg, po; assay type: ADME, organism-based; parameters: dose 10 mg/kg, route oral; conditions: in vivo
[8] = AUC (0 to last) in Sprague-Dawley rat at 10 mg/kg, po; assay type: ADME, organism-based; parameters: time 0 - last, dose 10 mg/kg, route oral; conditions: plasma
[9] = Half life in Sprague-Dawley rat at 10 mg/kg, po; assay type: ADME, organism-based; parameters: dose 10 mg/kg, route oral; conditions: in vivo
[10] = Volume of distribution in Sprague-Dawley rat at 1 mg/kg, iv; assay type: ADME, organism-based; parameters: dose 1 mg/kg, route intravenous; conditions: in vivo
[11] = Half life in Sprague-Dawley rat at 1 mg/kg, iv; assay type: ADME, organism-based; parameters: dose 1 mg/kg, route intravenous; conditions: in vivo
[12] = Clearance in Sprague-Dawley rat at 1 mg/kg, iv; assay type: ADME, organism-based; parameters: dose 1 mg/kg, route intravenous; conditions: in vivo

Dihydroorotate dehydrogenase (quinone), mitochondrial, sequence (Q02127 whole entry): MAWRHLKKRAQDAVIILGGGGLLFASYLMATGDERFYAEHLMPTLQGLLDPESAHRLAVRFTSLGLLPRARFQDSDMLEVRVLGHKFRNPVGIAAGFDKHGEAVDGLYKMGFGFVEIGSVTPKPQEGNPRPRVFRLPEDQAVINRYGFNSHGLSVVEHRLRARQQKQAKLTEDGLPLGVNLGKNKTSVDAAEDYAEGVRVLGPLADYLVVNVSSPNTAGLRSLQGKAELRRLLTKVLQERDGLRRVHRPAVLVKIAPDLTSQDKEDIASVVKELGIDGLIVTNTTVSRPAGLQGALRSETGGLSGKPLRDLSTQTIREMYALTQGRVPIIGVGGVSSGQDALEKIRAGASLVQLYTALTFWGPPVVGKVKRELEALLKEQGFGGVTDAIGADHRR

| Structure (SMILES) | IC50 [1] [nM] | IC50 [2] [nM] | IC50 (Plasmodium falciparum [3]) [nM] | IC50 (Plasmodium falciparum [4]) [nM] | bioavailability [5] [%] | Tmax [6] [min] | Cmax [7] [ng/mL] | AUC(0-t) [8] [ng·h/mL] | half-life [9] [min] | Vd [10] [L/kg] | half-life [11] [min] | clearance [12] [mL/min/kg] |
| --- | --- | --- | --- | --- | --- | --- | --- | --- | --- | --- | --- | --- |
| CCCOC(=O)C1=C(Nc2ccc3ccccc3c2)SCC1=O | > 50000 | 951 | 1660 | 890 | – | – | – | – | – | – | – | – |
| CCCCNC(=O)C1=C(Nc2ccc(C)c(C)c2)SCC1=O | 4420 | 5730 | 2780 | 2700 | – | – | – | – | – | – | – | – |
| CCOC(=O)C1=C(Nc2ccc3cc4ccccc4cc3c2)SCC1=O | > 50000 | 197 | 1130 | 688 | – | – | – | – | – | – | – | – |
| CCOC(=O)C1=C(Nc2ccc3ccccc3c2)OCC1=O | > 50000 | 6 | 18 | 15 | 40 | 17.4 | 609 | 791 | 45 | 1.91 | 15.6 | 84.7 |
| CCOC(=O)C1=C(Nc2ccc(C(F)(F)F)cc2)SCC1=O | > 50000 | 367 | 1040 | 946 | – | – | – | – | – | – | – | – |
| CCOC(=O)C1=C(Nc2ccc(C(F)(F)F)cc2)OCC1=O | > 50000 | 142 | 867 | 607 | – | – | – | – | – | – | – | – |
| CCOC(=O)C1=C(Nc2ccc3c(c2)c2ccccc2n3CC)SCC1=O | > 50000 | 392 | 1510 | 1230 | – | – | – | – | – | – | – | – |
| CCOC(=O)C1=C(Nc2ccc(Br)cc2C)SCC1=O | > 50000 | > 50000 | > 20000 | > 20000 | – | – | – | – | – | – | – | – |
| Cc1ccc(NC2=CC(=O)CS2)cc1C | > 50000 | 11400 | 2500 | 1910 | – | – | – | – | – | – | – | – |
| CCOC(=O)C1=C(Nc2ccc(S(F)(F)(F)(F)F)cc2)SCC1=O | > 50000 | 559 | 697 | 307 | – | – | – | – | – | – | – | – |
| CCOC(=O)C1=C(Nc2ccc3ccccc3c2)SCC1=O | > 50000 | 20 | 57 | 77 | 3.02 | 15 | 25.5 | 39.3 | 154 | 3.35 | 18 | 129 |
| CCOC(=O)C1=C(Nc2cc(Cl)cc(Cl)c2)SCC1=O | > 50000 | 1190 | 6000 | 4030 | – | – | – | – | – | – | – | – |
| CCOC(=O)C1=C(Nc2cnc3ccccc3c2)OCC1=O | > 50000 | 79 | 517 | 492 | – | – | – | – | – | – | – | – |
| CCOC(=O)C1=C(Nc2ccc(C)c(C)c2)OCC1=O | > 50000 | 698 | 486 | 372 | – | – | – | – | – | – | – | – |
| CCOC(=O)C1=C(Nc2ccc(Cl)cc2)SCC1=O | > 50000 | 1110 | > 20000 | > 20000 | – | – | – | – | – | – | – | – |
| CCOC(=O)C1=C(Nc2ccc3c(c2)CCCC3)OCC1=O | > 50000 | 18 | 76 | 57 | – | – | – | – | – | – | – | – |
| CCOC(=O)C1=C(Nc2ccc(Br)c(C(F)(F)F)c2)SCC1=O | > 50000 | 1620 | 5540 | 5610 | – | – | – | – | – | – | – | – |
| CCNC(=O)C1=C(Nc2ccc3ccccc3c2)SCC1=O | > 50000 | 12100 | 8490 | 11100 | – | – | – | – | – | – | – | – |
| Cc1ccc(NC2=C(C(=O)NC3CC3)C(=O)CS2)cc1C | 4110 | 19100 | 5530 | 6620 | – | – | – | – | – | – | – | – |
| O=C1CSC(Nc2ccc3ccccc3c2)=C1C(=O)NC1CC1 | > 50000 | 13200 | 7940 | 10200 | – | – | – | – | – | – | – | – |
| CCCCOC(=O)C1=C(Nc2ccc(C)c(C)c2)SCC1=O | > 50000 | 2350 | 889 | 745 | – | – | – | – | – | – | – | – |
| CCCNC(=O)C1=C(Nc2ccc(C)c(C)c2)SCC1=O | 6300 | 4630 | 3930 | 3170 | – | – | – | – | – | – | – | – |
| COC(=O)C1=C(Nc2ccc(C)c(C)c2)SCC1=O | > 50000 | 1490 | 1270 | 1020 | – | – | – | – | – | – | – | – |

| Structure (SMILES) | IC50 [1] [nM] | IC50 [2] [nM] | IC50 (Plasmodium falciparum [3]) [nM] | IC50 (Plasmodium falciparum [4]) [nM] | bioavailability [5] [%] | Tmax [6] [min] | Cmax [7] [ng/mL] | AUC(0-t) [8] [ng·h/mL] | half-life [9] [min] | Vd [10] [L/kg] | half-life [11] [min] | clearance [12] [mL/min/kg] |
| --- | --- | --- | --- | --- | --- | --- | --- | --- | --- | --- | --- | --- |
| Cc1ccc(NC2=C(C(N)=O)C(=O)CS2)cc1C | > 50000 | > 50000 | > 20000 | > 20000 | – | – | – | – | – | – | – | – |
| CCOC(=O)C1=C(Nc2ccccc2)SCC1=O | > 50000 | > 50000 | 6560 | 5900 | – | – | – | – | – | – | – | – |
| CCOC(=O)C1=C(Nc2ccc(Cl)c(C(F)(F)F)c2)SCC1=O | > 50000 | 751 | 3150 | 2190 | – | – | – | – | – | – | – | – |
| CCCCNC(=O)C1=C(Nc2ccc3ccccc3c2)SCC1=O | > 50000 | > 50000 | 4030 | 5830 | – | – | – | – | – | – | – | – |
| CCOC(=O)C1=C(Nc2ccc(C)c(F)c2)SCC1=O | > 50000 | 536 | 3730 | 5050 | – | – | – | – | – | – | – | – |
| CCCCOC(=O)C1=C(Nc2ccc3ccccc3c2)SCC1=O | > 50000 | 35600 | 5230 | 8380 | – | – | – | – | – | – | – | – |
| Cc1ccc(NC2=C(C(=O)O)C(=O)CS2)cc1C | > 50000 | > 50000 | > 20000 | > 20000 | – | – | – | – | – | – | – | – |
| O=C1CSC(Nc2ccc3ccccc3c2)=C1C(=O)NCC1CC1 | > 50000 | > 50000 | > 20000 | 12400 | – | – | – | – | – | – | – | – |
| CCOC(=O)C1=C(Nc2cnc3ccccc3c2)SCC1=O | > 50000 | 351 | 290 | 253 | – | – | – | – | – | – | – | – |
| CCOC(=O)C1=C(Nc2ccc(S(F)(F)(F)(F)F)cc2)OCC1=O | > 50000 | 168 | 1060 | 680 | – | – | – | – | – | – | – | – |
| COC(=O)C1=C(Nc2ccc3ccccc3c2)SCC1=O | > 50000 | 33 | 400 | 245 | – | – | – | – | – | – | – | – |
| CCOC(=O)C1=C(Nc2ccc3c(c2)CCC3)SCC1=O | > 50000 | 851 | 1570 | 1400 | – | – | – | – | – | – | – | – |
| CCOC(=O)C1=C(Nc2cccc(C(F)(F)F)c2)SCC1=O | > 50000 | > 50000 | 13600 | 14400 | – | – | – | – | – | – | – | – |
| O=C(O)C1=C(Nc2ccc3ccccc3c2)SCC1=O | > 50000 | 1240 | 1050 | 1860 | – | – | – | – | – | – | – | – |
| Cc1ccc(NC2=C(C(=O)OCC3CC3)C(=O)CS2)cc1C | > 50000 | 4160 | 2630 | 3530 | – | – | – | – | – | – | – | – |
| CCNC(=O)C1=C(Nc2ccc(C)c(C)c2)SCC1=O | > 50000 | 39500 | 6260 | 8470 | – | – | – | – | – | – | – | – |
| CCOC(=O)C1=C(Nc2ccc3c(c2)CCC3)OCC1=O | > 50000 | 65 | 373 | 495 | – | – | – | – | – | – | – | – |
| Cc1ccc(NC2=C(C(=O)NCC3CC3)C(=O)CS2)cc1C | 1840 | 3660 | 3500 | 3340 | – | – | – | – | – | – | – | – |
| CCOC(=O)C1=C(Nc2ccc3c(c2)CCCC3)SCC1=O | 12000 | 92 | 315 | 169 | – | – | – | – | – | – | – | – |
| CCOC(=O)C1=C(Nc2ccc(C(C)(C)C)cc2)SCC1=O | > 50000 | 227 | 767 | 1520 | – | – | – | – | – | – | – | – |
| CCCOC(=O)C1=C(Nc2ccc(C)c(C)c2)SCC1=O | 11600 | 4030 | 1690 | 2110 | – | – | – | – | – | – | – | – |
| CCCNC(=O)C1=C(Nc2ccc3ccccc3c2)SCC1=O | > 50000 | > 50000 | 3550 | 3480 | – | – | – | – | – | – | – | – |
| CCOC(=O)C1=C(Nc2ccc(C)c(C)c2)SCC1=O | > 50000 | 256 | 1320 | 1990 | – | – | – | – | – | – | – | – |
